Test results from ChEMBL document CHEMBL1201862, “PubChem BioAssay data set” (2004).
Activity calls are given as the source filed them.

Columns and labels:
[1] = viability of HCT116 lacking mutant beta-catenin – cell-based, human colon tumor, dose response (AID 1045); assay type: functional;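 note: HCT116 colon tumor cells with beta catenin knocked out; cells exposed to compound for 60 hours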
[2] = biological target: Cytochrome P450 2C9 (Homo sapiens, UniProt P11712)
[3] = viability of PTEN-deleted HCT116 cells – cell-based, HCT116 PTEN knockout, dose response (AID 1047); assay type: functional;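 note: HCT116 colon tumor cells with PTEN knocked out; cells exposed to compound for 60 hours before readout; potency for loss of cell viability measured by luminescence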
[4] = biological target: Cytochrome P450 3A4 (Homo sapiens, UniProt P08684);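 note: CYP3A4 tested as one member of a cytochrome P450 panel screen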
[5] = biological target: FAD-linked sulfhydryl oxidase ALR (Homo sapiens, UniProt P55789); assay: ALR-catalysed DTT oxidation blockers – biochemical, H2O2 detection, luminescence, cherry-pick, dose response (AID 493248)
[6] = biological target: Paired box protein Pax-8 (Homo sapiens, UniProt Q06710); assay: PAX8 transcriptional activity inhibition in RMG-I – RMG-I cells, luciferase, cherry-pick, dose response (AID 687027); assay type: functional, cell-based;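 note: luciferase reporter driven by Pax8 target thyroperoxidase promoter measured by SteadyGlo luminescence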
[7] = system: H4; assay: Luminescence Cell-Based Dose Response HTS to Identify Activators of 5'UTR Stem-Loop Driven Prion Protein mRNA Translation in H4 Neuroglioblastoma Cells. [Related pubchem assays: 1829 (Project Summary), 1814 (Primary HTS)]; assay type: functional; details: Homo sapiens
[8] = biological target: Cytochrome P450 2C19 (Homo sapiens, UniProt P33261); assay: Cytochrome panel assay with activity outcomes. Panel member name: p450-cyp2c19 Compounds with AC50 equal or less than 10 uM are considered active; assay type: functional; details: read-out: AC50
[9] = Luminescence Cell-Based Dose Response HTS to Identify Activators of Luciferase Translation or Activity in H4 […] Cells. [Related pubchem assays: 1829 (Project Summary), 1814 (Primary HTS)]; assay type: functional
[10] = biological target: T1, Cytochrome P450 1A2 (Homo sapiens, UniProt P05177);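 note: PubChem cytochrome P450 panel assay, CYP1A2 panel member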
T1 sequence (P05177 whole entry): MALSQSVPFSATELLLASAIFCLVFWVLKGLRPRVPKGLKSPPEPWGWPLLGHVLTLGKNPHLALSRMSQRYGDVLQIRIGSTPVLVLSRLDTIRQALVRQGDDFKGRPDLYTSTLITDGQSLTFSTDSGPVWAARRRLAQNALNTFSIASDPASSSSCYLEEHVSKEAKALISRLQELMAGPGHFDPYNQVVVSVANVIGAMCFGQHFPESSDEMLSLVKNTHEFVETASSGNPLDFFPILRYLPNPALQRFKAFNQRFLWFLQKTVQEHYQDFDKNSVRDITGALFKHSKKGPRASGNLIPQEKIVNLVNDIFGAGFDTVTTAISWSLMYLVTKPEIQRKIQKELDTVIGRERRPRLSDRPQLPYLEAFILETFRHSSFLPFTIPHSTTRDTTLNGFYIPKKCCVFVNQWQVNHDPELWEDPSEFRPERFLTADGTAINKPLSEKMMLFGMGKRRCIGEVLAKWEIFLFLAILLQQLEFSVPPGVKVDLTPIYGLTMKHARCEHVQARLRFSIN

[11] = Luminescence Cell-Based Dose Confirmation HTS to Identify Activators of 5'UTR Stem-Loop Driven Alpha-Synuclein mRNA Translation in H4 Neuroglioblastoma Cells. [Related pubchem assays: 1829 (Project Summary), 1814 (Primary HTS)]; assay type: functional
[12] = biological target: T2, Protein skinhead-1 (Caenorhabditis elegans, UniProt P34707); assay type: functional
T2 sequence (P34707 whole entry): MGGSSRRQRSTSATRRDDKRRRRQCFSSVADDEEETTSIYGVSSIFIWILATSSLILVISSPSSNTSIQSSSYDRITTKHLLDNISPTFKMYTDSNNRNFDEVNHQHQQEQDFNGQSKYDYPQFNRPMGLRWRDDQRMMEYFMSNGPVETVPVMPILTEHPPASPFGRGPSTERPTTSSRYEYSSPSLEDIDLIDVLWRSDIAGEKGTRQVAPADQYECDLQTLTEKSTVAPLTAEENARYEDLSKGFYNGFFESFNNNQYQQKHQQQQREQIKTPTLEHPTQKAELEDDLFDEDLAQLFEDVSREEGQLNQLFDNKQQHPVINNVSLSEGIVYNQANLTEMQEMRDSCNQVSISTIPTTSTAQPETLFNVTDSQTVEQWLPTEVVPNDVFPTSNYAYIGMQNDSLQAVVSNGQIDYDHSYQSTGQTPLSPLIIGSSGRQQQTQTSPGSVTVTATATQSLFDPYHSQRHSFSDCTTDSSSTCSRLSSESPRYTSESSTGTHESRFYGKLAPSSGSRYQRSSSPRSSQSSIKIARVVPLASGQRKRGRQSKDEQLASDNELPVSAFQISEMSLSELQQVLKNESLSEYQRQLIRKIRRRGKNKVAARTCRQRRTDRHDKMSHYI

FAD-linked sulfhydryl oxidase ALR, sequence (P55789 whole entry): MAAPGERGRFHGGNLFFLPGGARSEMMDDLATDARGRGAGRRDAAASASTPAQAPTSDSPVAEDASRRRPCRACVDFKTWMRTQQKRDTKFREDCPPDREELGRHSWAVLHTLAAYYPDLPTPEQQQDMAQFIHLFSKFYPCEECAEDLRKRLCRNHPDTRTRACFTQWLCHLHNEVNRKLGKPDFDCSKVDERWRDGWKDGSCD
Paired box protein Pax-8, sequence (Q06710 whole entry): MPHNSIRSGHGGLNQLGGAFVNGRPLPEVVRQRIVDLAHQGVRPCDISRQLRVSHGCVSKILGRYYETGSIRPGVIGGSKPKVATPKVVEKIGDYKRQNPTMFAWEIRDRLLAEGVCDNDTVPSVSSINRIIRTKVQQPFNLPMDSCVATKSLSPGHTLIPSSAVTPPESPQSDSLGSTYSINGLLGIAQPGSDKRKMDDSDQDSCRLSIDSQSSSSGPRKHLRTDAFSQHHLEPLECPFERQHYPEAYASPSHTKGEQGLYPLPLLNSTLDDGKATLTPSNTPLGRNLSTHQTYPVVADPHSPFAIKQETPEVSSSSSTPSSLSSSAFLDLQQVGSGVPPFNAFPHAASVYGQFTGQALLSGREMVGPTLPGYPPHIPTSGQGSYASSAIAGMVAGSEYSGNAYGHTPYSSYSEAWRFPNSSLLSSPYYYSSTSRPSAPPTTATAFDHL
Cytochrome P450 2C9, sequence (P11712 whole entry): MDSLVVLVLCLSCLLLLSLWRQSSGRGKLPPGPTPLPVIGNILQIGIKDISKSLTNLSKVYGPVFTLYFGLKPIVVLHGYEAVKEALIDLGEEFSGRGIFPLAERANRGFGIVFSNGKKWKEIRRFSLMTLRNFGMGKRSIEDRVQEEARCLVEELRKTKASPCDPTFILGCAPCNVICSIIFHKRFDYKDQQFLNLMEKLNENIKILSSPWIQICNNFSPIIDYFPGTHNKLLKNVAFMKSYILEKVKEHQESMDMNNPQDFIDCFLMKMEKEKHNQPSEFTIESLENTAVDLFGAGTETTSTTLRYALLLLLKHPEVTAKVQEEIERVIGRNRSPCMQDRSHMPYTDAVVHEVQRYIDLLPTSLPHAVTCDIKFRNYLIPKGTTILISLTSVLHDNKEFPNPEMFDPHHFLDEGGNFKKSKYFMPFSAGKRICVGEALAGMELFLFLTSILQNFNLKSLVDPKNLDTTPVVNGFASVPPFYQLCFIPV
Cytochrome P450 3A4, sequence (P08684 whole entry): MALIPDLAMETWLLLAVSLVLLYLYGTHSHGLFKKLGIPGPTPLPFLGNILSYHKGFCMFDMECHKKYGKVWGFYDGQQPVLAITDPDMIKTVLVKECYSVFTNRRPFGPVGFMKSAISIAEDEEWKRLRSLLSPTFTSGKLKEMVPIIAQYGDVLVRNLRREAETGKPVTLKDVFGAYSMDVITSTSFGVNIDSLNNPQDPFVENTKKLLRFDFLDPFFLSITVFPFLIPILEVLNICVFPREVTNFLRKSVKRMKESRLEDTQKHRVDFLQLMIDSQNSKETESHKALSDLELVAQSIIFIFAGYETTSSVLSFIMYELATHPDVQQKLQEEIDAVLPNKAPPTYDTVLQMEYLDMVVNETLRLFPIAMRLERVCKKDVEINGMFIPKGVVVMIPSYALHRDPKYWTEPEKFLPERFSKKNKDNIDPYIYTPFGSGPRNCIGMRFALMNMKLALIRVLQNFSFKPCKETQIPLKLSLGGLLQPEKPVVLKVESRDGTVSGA
Cytochrome P450 2C19, sequence (P33261 whole entry): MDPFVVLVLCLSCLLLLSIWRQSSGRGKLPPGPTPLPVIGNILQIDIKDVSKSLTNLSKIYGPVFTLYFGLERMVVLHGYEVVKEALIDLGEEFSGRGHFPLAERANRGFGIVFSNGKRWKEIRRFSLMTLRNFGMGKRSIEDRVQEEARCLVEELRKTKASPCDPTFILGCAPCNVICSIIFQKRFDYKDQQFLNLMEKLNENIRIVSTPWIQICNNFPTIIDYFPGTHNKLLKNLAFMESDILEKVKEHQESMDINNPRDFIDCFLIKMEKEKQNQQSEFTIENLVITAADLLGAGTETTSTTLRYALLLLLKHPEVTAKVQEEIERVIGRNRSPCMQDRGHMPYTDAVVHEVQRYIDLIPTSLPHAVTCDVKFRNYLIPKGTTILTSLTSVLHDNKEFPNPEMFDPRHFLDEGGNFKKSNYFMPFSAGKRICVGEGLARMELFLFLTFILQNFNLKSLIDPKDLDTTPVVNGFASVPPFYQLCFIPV

Which results are given for `Cc1ccc(C(=O)NC(=S)Nc2cc(-c3nc4ccccc4s3)ccc2C)cc1`?
EC50 [1]: 22 µM (active); AC50 [2]: 1.78 µM (inconclusive); EC50 [3]: 26.9 µM (active); AC50 [4]: 10 µM (inconclusive)

Which results are given for `COc1ccc(Oc2ccc(/C=C/C(=O)c3ccc(O)cc3)cc2[N+](=O)[O-])cc1`?
EC50 [1]: 2.14 µM (active); EC50 [3]: 2.53 µM (active)

With `COc1ccc(N2CCN(C(CNS(C)(=O)=O)c3ccco3)CC2)cc1` (centres undefined) as the compound, how does the AC50 [5] read?
The AC50 was 4.67 µM (active).

With `COC(=O)c1ccc(CSc2nc3cc(C)ccc3[nH]2)o1` as the compound, how does the AC50 [5] read?
The AC50 was 2.71 µM (active).

Which AC50 [6] does the source give for `C[C@@H]1CN([C@@H](C)CO)C(=O)c2cccc(NC(=O)c3ccncc3)c2O[C@@H]1CN(C)S(=O)(=O)c1cccs1` here?
Its AC50 is 69.5 µM (active).

With `C=C(C)c1cccc(C(C)(C)NC(=O)N2CCN(c3ccccc3OC)CC2)c1` as the compound, how does the AC50 [6] read?
Its AC50 is 65.2 µM (active).

With `CC1CC(Nc2ccccc2)c2ccccc2N1C(=O)c1ccco1` (centres undefined) as the compound, how does the AC50 [5] read?
Its AC50 is 21.1 µM (active).

With `CN1CCN(C(=O)c2ccc(COc3ccc(C(C)(C)C)cc3)o2)CC1` as the compound, how does the EC50 [7] read?
Its EC50 is 35.2 µM (active).

What about the AC50 [2] of the same compound?
The AC50 was 31.6 µM (inconclusive).

What about the AC50 [8] of the same compound?
The AC50 was 25.1 µM (inconclusive).

What about the EC50 [9] of the same compound?
The EC50 was 0.148 µM (inconclusive).

What about the AC50 [10] of the same compound?
The AC50 was 12.6 µM (inconclusive).

And the EC50 [11]?
Its EC50 is 4.82 µM (active).

With `N=c1n(CCO)c2ccccc2n1CCOc1ccc(Cl)cc1Cl` as the compound, how does the EC50 [1] read?
The EC50 was 8.45 µM (active).

What about the EC50 [3] of the same compound?
Its EC50 is 8.23 µM (active).

Which EC50 [1] does the source give for `COc1ccc(C)cc1C(=O)CCC(=O)Nc1ccccc1N1CCOCC1` here?
Its EC50 is 5.33 µM (active).

And the EC50 [3]?
The EC50 was 7.32 µM (active).

For `COc1cccc(C(=O)Nc2ccccc2N2CCCC2)c1`, which AC50 [5] is on record?
The AC50 was 1.54 µM (active).

For `Fc1cc(Br)ccc1N=C(S)NCCc1ccccc1`, which EC50 [7] is on record?
Its EC50 is 27.5 µM (active).

And the EC50 [9]?
Its EC50 is 21.3 µM (active).

What about the EC50 [11] of the same compound?
The EC50 was 15.9 µM (active).

What does the source list for `c1ccc(CSc2nnc(Cc3ccccc3)o2)cc1`?
EC50 [7]: > 120 µM (not active); EC50 [9]: 16.8 µM (active); EC50 [11]: 14.4 µM (active)

What does the source list for `O=C1N=C(c2ccccc2)N(c2ccccc2)C(=O)/C1=C(/O)c1ccccc1`?
EC50 [7]: > 120 µM (not active); EC50 [9]: > 120 µM (not active); EC50 [11]: 19.2 µM (active)

Which AC50 [5] does the source give for `COc1ccc2c(c1)NP(=S)(Oc1ccccc1)N2` (centres undefined) here?
The AC50 was 2.02 µM (active).

For `Cc1cc(C(=O)CN2C(=O)NC3(CCCc4ccccc43)C2=O)c(C)n1Cc1ccccc1` (centres undefined), which IC50 [12] is on record?
Its IC50 is > 100 µM (inactive).

For `COC(=O)c1sc(-c2ccccc2)cc1NC(=O)c1cc(OC)cc(OC)c1`, which EC50 [1] is on record?
The EC50 was 21.7 µM (active).

And the EC50 [3]?
Its EC50 is 25.3 µM (active).

For `COc1nc(-c2ccccc2)ccc1-c1noc(-c2ccco2)n1`, which IC50 [12] is on record?
The IC50 was > 100 µM (inactive).

With `CC(=O)NCCc1cc2cc(C)c(C)cc2nc1O` as the compound, how does the IC50 [12] read?
Its IC50 is > 100 µM (inactive).

With `CC(C1CC1)N(Cc1ccccc1)C(S)=Nc1cccc(C(F)(F)F)c1` (centres undefined) as the compound, how does the AC50 [6] read?
Its AC50 is 33.2 µM (active).

Which IC50 [12] does the source give for `CCn1c2ccc(F)cc2c2nc3ccccc3nc21` here?
Its IC50 is > 100 µM (inactive).
